Experimental data from patent US9937192B2, “Combination therapy to treat mycobacterium diseases” (priority 2012, dated 2018).
Values after ≈ are worked out from the molar mass of the structure shown. Read-outs that look alike come from different tables or passages of the source.

Legend:
Aqueous Solubility Study = format: physicochemical; conditions: water, aqueous buffer, thermodynamic from solid, crystalline solid form, pH >3.0, 96 hours at room temperature
Description: The aqueous solubilities of compound 23 and compound W were determined according to the following procedure.
Aqueous samples of each compound were prepared as follows. Compounds were weighed (20-30 mg compound) in 4 ml clear vials prior to adding water (0.5 mL) and stirring by magnetic stirrer. 1.0N HCl was added to the suspension to adjust the pH to the desired range. After stirring for 96 hours at room temperature, the suspension was filtered through a 0.22 micron filter (Millipore, Ultrafree centrifugal filters, Durapore PVDF 0.22 μm, Cat# UFC30GVNB). The filtrate was collected and the pH measured with a pH meter.
Standard solutions of each compound were prepared according to the following procedure. […]
Aliquots of each sample and each standard solution were analyzed by HPLC analysis (Agilent 1100, injection volume 10 μL, wavelength 271 nm, column XTerra® Phenyl 5 μm, 4.6×50 mm, Part No. 186001144, mobile phase: A: 0.1% TFA in water 0.1% TFA in AcN). […] Standard curves were obtained by plotting the average of the peak area from the HPLC versus the concentrations of the standard solutions (with appropriate corrections of the weights of the standards based on total water content of the solid as determined by elemental analysis). The concentration of each sample was calculated from the peak area of the aqueous sample from the HPLC results and the slope and intercept of the standard curves. […]

[1] = Oral Range Finding Toxicity and Toxicokinetic Study in Male Cynomolgus Monkeys; format: in vivo, Cynomolgus monkeys (Macaca Fascicularis)
Description: An Oral Range Finding Toxicity and Toxicokinetic Study in Male Cynomolgus Monkeys
The first day of dosing was designated as Day 1 of the study. The actual volume administered to each animal was calculated and adjusted based on the most recent body weight of each animal.
Cage-side clinical signs (ill health, behavioral changes etc.) were recorded at least once daily during the study.
Body weights were recorded for all animals prior to group assignment and on Days 1 (prior to dosing), 3 and 7 as well as terminally prior to necropsy (fasted).
Electrocardiograms (bipolar limb leads I, II and III, and augmented unipolar leads aVR, aVL and aVF) were obtained for all monkeys once during the pre-treatment period and again on Day 7 (post-dosing).
The tracings were assessed for gross changes indicative of cardiac electrical dysfunction. The potential presence of abnormalities involving heart rate (lead II), sinus and atrioventricular rhythm or conductivity were determined. Heart rate, PR interval, QRS duration, QT and QTc intervals values were measured.
A series of 7 blood samples (approximately 0.5 mL each) were collected from each monkey on Days 1 and 7 at the following time points: predose, 30 minutes and 2, 3, 6, 12 and 24 hours post-dose. For this purpose, each monkey was bled by venipuncture and the samples were collected into tubes containing the anticoagulant, K2EDTA. Tubes were placed on wet ice until ready for processing.
Laboratory investigations (hematology, coagulation, clinical chemistry and urinalysis) were performed on all animals prior to start of treatment and prior to termination on Day 8.
A necropsy with tissue collection was conducted on all animals terminated during the study. The necropsy included examination of: • carcass and muscular/skeletal system; • all external surfaces and orifices; • cranial cavity and external surface of the brain; • neck with associated organs and tissues; and • thoracic, abdominal, and pelvic cavities with their associated organs and tissues. All abnormalities were described and recorded.
For all animals, all tissues indicated above were embedded in paraffin, sectioned and stained with hematoxylin and eosin and examined by light microscopy.

[2] = Rat IV Study (pharmacokinetics); conditions: male Sprague Dawley rats, plasma analyte = label
[3] = system: intracellular M. tuberculosis in THP-1 cells; test: microbe, parasite or virus in culture; format: cell-based; conditions: Mycobacterium tuberculosis, H37RA; for IC50: THP-1, 120 h, read-out: Mtb H37Ra in THP1 Cells (IC50); for MIC: read-out: MIC, Macrophage Cells
[4] = system: nonreplicating M. tuberculosis; test: Low-Oxygen-Recovery Assay (LORA) MIC; format: cell-based; conditions: Mycobacterium tuberculosis, read-out: LORA MIC
Description: MIC Determination in the Low-Oxygen-Recovery Assay (LORA) for Nonreplicating M. tuberculosis
Screening for new antimicrobial agents is routinely conducted only against actively replicating bacteria. However, it is now widely accepted that a physiological state of non-replicating persistence (NRP) is responsible for antimicrobial tolerance in many bacterial infections. In tuberculosis, the key to shortening the 6-month regimen lies in targeting this NRP subpopulation. […] Cho S H, Want S, Wan B, Hwang C H, Pauli G F, Franzblau S G; “Low-Oxygen-Recovery Assay for High-Throughput Screening of Compounds against Nonreplicating Mycobacterium tuberculosis” Antimicrob Agents Chemother. 2007 April; 51(4): 1380-1385 doi: 10.1128/AAC.00055-06.

[5] = system: intracellular M. tuberculosis in J774 cells; test: Efficacy against intracellular M. tuberculosis (luciferase) in J774 cells; format: cell-based
M. tuberculosis = test: microbe, parasite or virus in culture; format: cell-based
M. tuberculosis H37Rv [6] = test: Monotherapy against established TB in mice (dose-ranging activity study); format: in vivo; conditions: BALB/c mice, M. tuberculosis H37Rv, 150 mg/kg daily 5 days per week
M. tuberculosis H37Rv [7] = conditions: cited from earlier work
M. kansasii = test: MIC in bacterial broth culture (7H9 with ADC, visual or resazurin); format: cell-based; conditions: Mycobacterium kansasii, Table 31, duplicate values
M. tuberculosis Erdman = test: MBC assay, log killing reduction in CFU over a one month period of incubation (Table 35); format: cell-based; conditions: Compound 23A at 4×MIC
[8] = system: Non-Replicating (NRP) M. tuberculosis H37Ra; test: Non-replicating (NRP) M. tuberculosis H37Ra (luciferase) culture assay; format: cell-based; conditions: Mycobacterium tuberculosis, 336 h, read on day 14
[9] = doses up to 200 mg/kg/day for 7 days
[10] = Compound W dosed IV bolus 1 mg/kg in D5W
[11] = Compound W dosed IV bolus 5 mg/kg in D5W
[12] = Mycobacterium tuberculosis, H37RA, read-out: MIC, Broth

CCNC(=O)Nc1nc2cc(-c3cnc(C(C)(C)O)nc3)c(F)c([C@H]3CCCO3)c2[nH]1 [Compound 23, 1-ethyl-3-[6-fluoro-5-[2-(1-hydroxy-1-methyl-ethyl)pyrimidin-5-yl]-7-[(2R)-tetrahydrofuran-2-yl]-1H-benzimidazol-2-yl]urea]
solubility at 96 h (Aqueous Solubility Study): < 1 µg/mL | clinical signs, body weights, electrocardiography, clinical pathology, organ weights [1, 9]: no clinical signs, or changes in body weights, electrocardiography parameters, clinical pathology parameters, or organ weights | macroscopic or microscopic findings [1, 9]: no macroscopic or microscopic findings | no observed effect level (NOEL) ([1]; oral gavage once per day for 7 days): 200 mg/kg/day | exposures for different dosage levels ([1]; toxicokinetics): dose related | AUCextrap [2, 10]: 310 ng·h/mL | Cl_obs [2, 10]: 54.9 mL/min/kg | Vss_obs [2, 10]: 3.8 L/kg | AUCextrap [2, 11]: 3060 ng·h/mL | Cl_obs [2, 11]: 27.3 mL/min/kg | Vss_obs [2, 11]: 4.08 L/kg

COc1c(N2CCNC(C)C2)c(F)cc2c(=O)c(C(=O)O)cn(C3CC3)c12 (centres unmarked) [Gatifloxacin, 1-cyclopropyl-6-fluoro-8-methoxy-7-(3-methylpiperazin-1-yl)-4-oxo-quinoline-3-carboxylic acid]
IC50 [3]: 0.2 µg/mL (≈ 0.533 µM) | MIC [4]: 3.6 µg/mL (≈ 9.59 µM) | IC50 ([5]; Mycobacterium tuberculosis, J774, 120 h, read-out: Mtb CDC1551 in J774 Cells (IC50)): 0.94 µg/mL (≈ 2.5 µM) | Erdman (MIC) (M. tuberculosis): 0.25 µg/mL

NC(=O)c1cnccn1 [Pyrazinamide, pyrazine-2-carboxamide]
MIC [3]: > 2.5 µg/mL | Log cfu (lung) (M. tuberculosis H37Rv [6]; 4 weeks of treatment): 4.22 | Log Reduction (M. tuberculosis H37Rv [6]; 4 weeks, vs untreated control): 1.78 | MIC (M. tuberculosis H37Rv [7]; M. tuberculosis H37Rv, normal pH): 250 µg/mL (≈ 2030 µM) | MIC (M. tuberculosis H37Rv [7]; pH 6.0): 50 µg/mL (≈ 406 µM) | MIC (M. tuberculosis; [12]): > 12.3 µg/mL

COc1c(N2C[C@@H]3CCCN[C@@H]3C2)c(F)cc2c(=O)c(C(=O)O)cn(C3CC3)c12 [Moxifloxacin, 1-cyclopropyl-7-[(1S,6S)-2,8-diazabicyclo [4.3.0]non-8-yl]-6-fluoro-8-methoxy-4-oxo-quinoline-3-carboxylic acid]
IC50 [3]: 0.33 µg/mL (≈ 0.822 µM) | MIC [3]: 0.33 µg/mL (≈ 0.822 µM) | MIC [4]: > 40 µg/mL | MIC (M. kansasii; M. kansasii 303): 0.03 µg/mL (≈ 0.0747 µM) | MIC (M. kansasii; M. kansasii 316): 0.03 µg/mL (≈ 0.0747 µM) | MIC (M. kansasii; M. kansasii 379): 0.03 µg/mL (≈ 0.0747 µM) | Log Reduction (cfu) (M. tuberculosis Erdman; day 0 of incubation): 0 Log | Log Reduction (cfu) (M. tuberculosis Erdman; day 1 of incubation): 0.4 Log | Log Reduction (cfu) (M. tuberculosis Erdman; day 2 of incubation): 1.6 Log | Log Reduction (cfu) (M. tuberculosis Erdman; day 3 of incubation): 2.8 Log | Log Reduction (cfu) (M. tuberculosis Erdman; day 7 of incubation): 2.2 Log | Log Reduction (cfu) (M. tuberculosis Erdman; day 14 of incubation): 1.4 Log | Log Reduction (cfu) (M. tuberculosis Erdman; day 21 of incubation): 0.0 Log | Log Reduction (cfu) (M. tuberculosis Erdman; day 28 of incubation): 0.2 Log | IC50 [8]: 6 µg/mL (≈ 14.9 µM) | IC50 ([5]; Mycobacterium tuberculosis, J774, 120 h; read-out: Mtb CDC1551 in J774 Cells (IC50)): 0.21 µg/mL (≈ 0.523 µM) | MIC (M. tuberculosis; Mycobacterium tuberculosis, ERDMAN, Table 31, Mtb Erdman, duplicate values, read-out: MIC): 0.03 µg/mL (≈ 0.0747 µM) | MIC (M. tuberculosis; Mycobacterium tuberculosis, ERDMAN, Table 32, M. tuberculosis Erdman, […], duplicate values, read-out: MIC): 0.03 µg/mL (≈ 0.0747 µM) | MIC (M. tuberculosis; Mycobacterium tuberculosis, ERDMAN, Table 33, M. tuberculosis strain Erdman, read-out: MIC): 0.03 µg/mL (≈ 0.0747 µM) | MIC (M. tuberculosis; Mycobacterium tuberculosis, GN9, Table 31, Mtb GN9, duplicate values, read-out: MIC): 0.03 µg/mL (≈ 0.0747 µM) | MIC (M. tuberculosis; Mycobacterium tuberculosis, GN9, Table 33, M. tuberculosis strain GN9, read-out: MIC): 0.03 µg/mL (≈ 0.0747 µM) | MIC (M. tuberculosis; [12]): 0.12 µg/mL (≈ 0.299 µM) | MIC (M. tuberculosis; Mycobacterium tuberculosis, H37RV, Table 31, Mtb H37Rv, duplicate values, read-out: MIC): 0.03 µg/mL (≈ 0.0747 µM) | MIC (M. tuberculosis; Mycobacterium tuberculosis, H37RV, Table 33, M. tuberculosis strain H37Rv, read-out: MIC): 0.06 µg/mL (≈ 0.149 µM) | MIC (M. tuberculosis; Mycobacterium tuberculosis, Table 31, Mtb CDC1551, duplicate values, read-out: MIC): 0.015 µg/mL (≈ 0.0374 µM) | MIC (M. tuberculosis; Mycobacterium tuberculosis, Table 31, Mtb HN878 (Beijing-Type), duplicate values, read-out: MIC): 0.03 µg/mL (≈ 0.0747 µM) | MIC (M. tuberculosis; Mycobacterium tuberculosis, Table 32, […], duplicate values, read-out: MIC): 8 µg/mL (≈ 19.9 µM) | MIC (M. tuberculosis; Mycobacterium tuberculosis, Table 33, M. tuberculosis strain 210, read-out: MIC): 0.015 µg/mL (≈ 0.0374 µM) | MIC (M. tuberculosis; Mycobacterium tuberculosis, Table 33, M. tuberculosis strain AH13, read-out: MIC): 0.5 µg/mL (≈ 1.25 µM) | MIC (M. tuberculosis; Mycobacterium tuberculosis, Table 33, M. tuberculosis strain AH517, read-out: MIC): 0.03 µg/mL (≈ 0.0747 µM) | MIC (M. tuberculosis; Mycobacterium tuberculosis, Table 33, M. tuberculosis strain BW9, read-out: MIC): 0.008 µg/mL (≈ 0.0199 µM) | MIC (M. tuberculosis; Mycobacterium tuberculosis, Table 33, M. tuberculosis strain C913, read-out: MIC): 0.03 µg/mL (≈ 0.0747 µM) | MIC (M. tuberculosis; Mycobacterium tuberculosis, Table 33, M. tuberculosis strain CDC1551, read-out: MIC): 0.03 µg/mL (≈ 0.0747 µM) | MIC (M. tuberculosis; Mycobacterium tuberculosis, Table 33, M. tuberculosis strain H10460, read-out: MIC): 0.25 µg/mL (≈ 0.623 µM) | MIC (M. tuberculosis; Mycobacterium tuberculosis, Table 33, M. tuberculosis strain H13571, read-out: MIC): 0.03 µg/mL (≈ 0.0747 µM) | MIC (M. tuberculosis; Mycobacterium tuberculosis, Table 33, M. tuberculosis strain HH915336, read-out: MIC): 0.015 µg/mL (≈ 0.0374 µM) | MIC (M. tuberculosis; Mycobacterium tuberculosis, Table 33, M. tuberculosis strain LL, read-out: MIC): 0.015 µg/mL (≈ 0.0374 µM) | MIC (M. tuberculosis; Mycobacterium tuberculosis, Table 33, M. tuberculosis strain MC19062, read-out: MIC): 0.015 µg/mL (≈ 0.0374 µM) | MIC (M. tuberculosis; Mycobacterium tuberculosis, Table 33, M. tuberculosis strain Rv ATCC, read-out: MIC): 0.06 µg/mL (≈ 0.149 µM) | MIC (M. tuberculosis; Mycobacterium tuberculosis, Table 33, M. tuberculosis strain W10, read-out: MIC): 0.03 µg/mL (≈ 0.0747 µM) | MIC (M. tuberculosis; Mycobacterium tuberculosis, Table 33, M. tuberculosis strain W33, read-out: MIC): 0.5 µg/mL (≈ 1.25 µM) | MIC (M. tuberculosis; Mycobacterium tuberculosis, Table 33, M. tuberculosis strain Wg565, read-out: MIC): 1 µg/mL (≈ 2.49 µM) | MIC (M. tuberculosis; Table 31, Mtb GN9, duplicate values): 0.015 µg/mL (≈ 0.0374 µM) | MIC (M. tuberculosis; Table 31, Mtb HN878 (Beijing-Type), duplicate values): 0.015 µg/mL (≈ 0.0374 µM) | MIC (M. tuberculosis; Table 32, M. tuberculosis Erdman, […], duplicate values): 0.015 µg/mL (≈ 0.0374 µM) | MIC (M. tuberculosis; Table 32, […], duplicate values): 4 µg/mL (≈ 9.96 µM) | Erdman (MIC) (M. tuberculosis; Table 36, Mtb Erdman, unit inferred): 0.03 µg/mL
